Measured values: patent US10221129B2, “Inhibitors of human immunodeficiency virus replication” (ViiV HEALTHCARE UK (NO.5) LIMITED, priority 2015, dated 2019)

Legend:
[1] = Compound cytotoxicity, XTT-based colorimetric assay; format: cell-based; conditions: human, uninfected MT2 cells, day 4, XTT
Method: Compound cytotoxicity and the corresponding CC50 values were determined using the same protocol as described in the antiviral assay except that uninfected cells were used. Cytotoxicity was assessed on day 4 in uninfected MT2 cells by using a XTT (2,3-bis[2-Methoxy-4-nitro-5-sulfophenyl]-2H-tetrazolium-5-carboxyanilide inner salt)-based colorimetric assay (Sigma-Aldrich, St Louis, Mo.).

[2] = tested on: recombinant NL4-3 virus (nef section replaced with Renilla luciferase gene) in MT-2 cells; test: HIV cell culture assay (antiviral activity, luciferase readout); format: cell-based; conditions: Renilla, NL43, MT-2 cells infected for 4-5 days with recombinant NL4-3 Renilla luciferase virus
Method: HIV cell culture assay—MT-2 cells, 293T cells and the proviral DNA clone of NL4-3 virus were obtained from the NIH AIDS Research and Reference Reagent Program. MT-2 cells were propagated in RPMI 1640 media supplemented with 10% heat inactivated fetal bovine serum (FBS), 100 jag/ml penicillin G and up to 100 units/mL streptomycin. The 293T cells were propagated in DMEM media supplemented with 10% heat inactivated FBS, 100 μg/mL penicillin G and 100 μg/mL streptomycin. A recombinant NL4-3 proviral clone, in which a section of the nef gene was replaced with the Renilla luciferase gene, was used to make the reference virus used in these studies. The recombinant virus was prepared through transfection of the recombinant NL4-3 proviral clone into 293T cells using Transit-293 Transfection Reagent from Mirus Bio LLC (Madison, Wis.). Supernatant was harvested after 2-3 days and the amount of virus present was titered in MT-2 cells using luciferase enzyme activity as a marker by measuring luciferase enzyme activity. Luciferase was quantitated using the EnduRen Live Cell Substrate from Promega (Madison, Wis.). Antiviral activities of compounds toward the recombinant virus were quantified by measuring luciferase activity in MT-2 cells infected for 4-5 days with the recombinant virus in the presence of serial dilutions of the compound.
(Johnson V A, Byington R T. Infectivity Assay. In Techniques in HIV Research. ed. Aldovini A, Walker B D. 71-76. New York: Stockton Press. 1990).

## COc1ccc(N(C)C(=O)[C@H](Cc2ccccc2)NC(=O)NS(=O)(=O)N2CCc3cc(C)ccc32)cc1 [CA-2]
[1]
  CC50 at 4 days: > 33300 nM
[2]
  EC50: 140 nM

## COc1ccc(N(C(=O)[C@H](Cc2cc(F)cc(F)c2)NC(=O)NS(=O)(=O)N2CCc3cccnc32)C2CC2)cc1 [BB-32]
[1]
  CC50 at 4 days: 62600 nM
[2]
  EC50: 50 nM

## COc1ccc(N(C)C(=O)[C@H](Cc2ccccc2)NC(=O)NS(=O)(=O)n2ccc3c(F)c(F)c(F)c(F)c32)cc1 [JB-78]
[1]
  CC50 at 4 days: > 33300 nM
[2]
  EC50: 370 nM

## COc1ccc(N(C)C(=O)[C@H](Cc2ccccc2)NC(=O)NS(=O)(=O)N(C)c2ccc(Cl)cc2)cc1 [JB-35]
[1]
  CC50 at 4 days: > 100000 nM
[2]
  EC50: 80 nM

## COc1ccc(N(C)C(=O)[C@H](Cc2ccccc2)NC(=O)NS(=O)(=O)NC(C)c2cccc(C)n2)cc1 (some centres unmarked) [JB-58]
[1]
  CC50 at 4 days: > 100000 nM
[2]
  EC50: 690 nM

## CCOc1ccc(N(CC)C(=O)[C@H](Cc2ccccc2)NC(=O)NS(=O)(=O)N2CCc3c(Cl)cccc32)cc1 [JB-72]
[1]
  CC50 at 4 days: > 33300 nM
[2]
  EC50: 180 nM

## COc1ccc(N(C)C(=O)[C@H](Cc2cc(F)cc(F)c2)NC(=O)NS(=O)(=O)N2CCC(F)(F)CC2)cc1F [AW-3]
[1]
  CC50 at 4 days: > 100000 nM
[2]
  EC50: 980 nM

## COc1ccc(N(C)C(=O)[C@H](Cc2ccccc2)NC(=O)NS(=O)(=O)n2ccc3cnccc32)cc1 [JB-80]
[1]
  CC50 at 4 day: > 100000 nM
[2]
  EC50: 360 nM

## COc1ccc(N(C)C(=O)[C@H](Cc2ccccc2)NC(=O)NS(=O)(=O)Nc2ccc(C(F)(F)F)cc2)cc1 [CA-28]
[1]
  CC50 at 4 days: > 100000 nM
[2]
  EC50: 50 nM

## COc1ccc(N(C)C(=O)[C@H](Cc2ccccc2)NC(=O)NS(=O)(=O)Nc2ccc(S(=O)(=O)N3CCOCC3)cc2)cc1 [CA-44]
[1]
  CC50 at 4 days: > 100000 nM
[2]
  EC50: 620 nM

## Cc1ncc(N(C)C(=O)[C@H](Cc2cc(F)cc(F)c2)NC(=O)NS(=O)(=O)N2CCc3cccnc32)cc1Cl [GW-15]
[1]
  CC50 at 4 days: 5100 nM
[2]
  EC50: 970 nM

## CN(C(=O)[C@H](Cc1ccccc1)NC(=O)NS(=O)(=O)Nc1ccccc1Cl)c1ccc2ncccc2c1 [JB-10]
[1]
  CC50 at 4 days: > 100000 nM
[2]
  EC50: 50 nM

## CN(C(=O)[C@H](Cc1cc(F)cc(F)c1)NC(=O)NS(=O)(=O)NCc1ccccc1)c1ccc2scnc2c1 [CA-126]
[1]
  CC50 at 4 days: > 100000 nM
[2]
  EC50: 520 nM

## CCOc1ccc(N(CC)C(=O)[C@H](Cc2ccccc2)NC(=O)NS(=O)(=O)N2CCc3cc(OC)cc(C)c32)cc1 [JB-74]
[1]
  CC50 at 4 days: > 100000 nM
[2]
  EC50: 1120 nM

## CN(C(=O)[C@H](Cc1cc(F)cc(F)c1)NC(=O)NS(=O)(=O)N1CCc2cccnc21)c1ccc(OC(F)F)nc1 [GW-13]
[1]
  CC50 at 4 days: > 100000 nM
[2]
  EC50: 60 nM

## CC(C)N(C)S(=O)(=O)NC(=O)N[C@@H](Cc1cc(F)cc(F)c1)C(=O)N(C)c1ccc2scnc2c1 [CA-147]
[1]
  CC50 at 4 days: > 100000 nM
[2]
  EC50: 80 nM

## COc1ccc(N(C)C(=O)[C@H](Cc2ccccc2)NC(=O)NS(=O)(=O)NCC(=O)N2CCCC2)cc1 [CA-51]
[1]
  CC50 at 4 days: > 100000 nM
[2]
  EC50: 4590 nM

## COc1ccc(N(C)C(=O)[C@H](Cc2ccccc2)NC(=O)NS(=O)(=O)Nc2ccc(-n3cccc3)cc2)cc1 [CA-45]
[1]
  CC50 at 4 days: > 33300 nM
[2]
  EC50: 520 nM

## CN(C(=O)[C@H](Cc1cc(F)cc(F)c1)NC(=O)N1CCN(C)S1(=O)=O)c1ccc2scnc2c1 [VN-28]
[1]
  CC50 at 4 days: > 100000 nM
[2]
  EC50: 250 nM

## COc1ccc(N(C)C(=O)[C@H](Cc2ccccc2)NC(=O)NS(=O)(=O)n2c(C)cc3cc(F)c(O)cc32)cc1 [CA-65]
[1]
  CC50 at 4 days: > 100000 nM
[2]
  EC50: 4040 nM

## COc1ccc(N(C)C(=O)[C@H](Cc2ccccc2)NC(=O)NS(=O)(=O)Nc2nccc3ccccc23)cc1 [JB-32]
[1]
  CC50 at 4 days: > 100000 nM
[2]
  EC50: 1450 nM

## COc1ccc(N(C)C(=O)[C@H](Cc2ccccc2)NC(=O)NS(=O)(=O)Nc2ccc3c(c2)CS(=O)(=O)C3)cc1 [CA-48]
[1]
  CC50 at 4 days: > 100000 nM
[2]
  EC50: 260 nM

## CN(C(=O)[C@H](Cc1cc(F)cc(F)c1)NC(=O)NS(=O)(=O)Nc1ccccn1)c1ccc2scnc2c1 [CA-114]
[1]
  CC50 at 4 days: > 100000 nM
[2]
  EC50: 100 nM

## CN(C(=O)[C@H](Cc1cc(F)cc(F)c1)NC(=O)NS(=O)(=O)N1CCC(c2ccccc2)C1)c1ccc2scnc2c1 (mixture of isomers) [CA-152]
[1]
  CC50 at 4 days: > 100000 nM
[2]
  EC50: 550 nM

## Cc1cc(N(C)C(=O)[C@H](Cc2cc(F)cc(F)c2)NC(=O)NS(=O)(=O)N2CCc3cccnc32)ccc1F [BB-17]
[1]
  CC50 at 4 days: 91200 nM
[2]
  EC50: 70 nM
